In ChEMBL document CHEMBL5321213, “Nicolaioidesin C: An Antiausterity Agent Shows Promising Antitumor Activity in a Pancreatic Cancer Xenograft Mouse Model” (J Nat Prod, 2023):
Active and inactive are the calls of the source. The rule behind the calls is not given here.

Tests used:
PANC-1 [1] = experiment: Preferential cytotoxicity against human PANC-1 cells in nutrient-deprived medium assessed as alteration in cell morphology by measuring cell rounding at 5 uM measured after 24 hrs by acridine orange and ethidium bromide dual fluorescent staining based imaging analysis; assay type: functional
PANC-1 [2] = experiment: Inhibition of Akt/mTOR signaling pathway in human PANC-1 cells in nutrient-deprived medium assessed as reduction in mTOR phosphorylation at S2481 residue measured after 6 hrs by Western blot analysis; assay type: cell-based; conditions: dose 5-20 µM
PANC-1 [3] = experiment: Inhibition of autophagy in human PANC-1 cells in nutrient-deprived medium assessed as downregulation of LC3-I protein expression measured after 6 hrs by Western blot analysis; assay type: functional, cell-based; conditions: dose 5-20 µM
MIA PaCa-2 [4] = experiment: Inhibition of Akt/mTOR signaling pathway in human MIA PaCa-2 cells in nutrient-deprived medium assessed as reduction in mTOR phosphorylation at S2481 residue measured after 6 hrs by Western blot analysis; assay type: cell-based; conditions: dose 5-20 µM
MIA PaCa-2 [5] = experiment: Antimetastatic activity in human MIA PaCa-2 cells in DMEM media assessed as inhibition of colony formation at 10 uM incubated for 24 hrs followed by replacement with fresh medium and measured after 10 days by crystal violet staining-based assay relative to control; assay type: functional
PANC-1 [6] = experiment: Antimetastatic activity in human PANC-1 cells in DMEM media assessed as inhibition of colony formation at 20 uM incubated for 24 hrs followed by replacement with fresh medium and measured after 10 days by crystal violet staining-based assay relative to control; assay type: functional
MIA PaCa-2 [7] = experiment: Antitumor activity against human MIA PaCa-2 cells xenografted in athymic BALB/c-nu mouse assessed as tumor wet weight at 2 mg/kg/day, ip administered five times per week for 4 weeks (reference value: 368 mg); assay type: functional
MIA PaCa-2 [8] = experiment: Antitumor activity against human MIA PaCa-2 cells xenografted in athymic BALB/c-nu mouse assessed as reduction in LC3-1 level in tumor at 2 to 10 mg/kg/day, ip administered five times per week for 4 weeks by immunohistochemistry analysis; assay type: functional, organism-based; conditions: dose 2-10 mg/kg/day
MIA PaCa-2 [9] = experiment: Antitumor activity against human MIA PaCa-2 cells xenografted in athymic BALB/c-nu mouse assessed as fold change in serine level in tumor at 10 mg/kg/day, ip administered five times per week for 4 weeks by LC-MS analysis; assay type: functional
MIA PaCa-2 [10] = experiment: Antitumor activity against human MIA PaCa-2 cells xenografted in athymic BALB/c-nu mouse assessed as fold change in leucine level in tumor at 10 mg/kg/day, ip administered five times per week for 4 weeks by LC-MS analysis; assay type: functional
MIA PaCa-2 [11] = experiment: Antitumor activity against human MIA PaCa-2 cells xenografted in athymic BALB/c-nu mouse assessed as fold change in proline level in tumor at 10 mg/kg/day, ip administered five times per week for 4 weeks by LC-MS analysis; assay type: functional
MIA PaCa-2 [12] = experiment: Antitumor activity against human MIA PaCa-2 cells xenografted in athymic BALB/c-nu mouse assessed as fold change in cytidine level in tumor at 10 mg/kg/day, ip administered five times per week for 4 weeks by LC-MS analysis; assay type: functional
MIA PaCa-2 [13] = experiment: Antitumor activity against human MIA PaCa-2 cells xenografted in athymic BALB/c-nu mouse assessed as fold change in 5'-methylthioadenosine level in tumor at 10 mg/kg/day, ip administered five times per week for 4 weeks by LC-MS analysis; assay type: functional
MIA PaCa-2 [14] = experiment: Antitumor activity against human MIA PaCa-2 cells xenografted in athymic BALB/c-nu mouse assessed as fold change in asparagine level in tumor at 10 mg/kg/day, ip administered five times per week for 4 weeks by LC-MS analysis; assay type: functional
PANC-1 [15] = experiment: Preferential cytotoxicity against human PANC-1 cells in nutrient-deprived medium assessed as alteration in cell morphology by measuring rupture of cell membrane at 5 uM measured after 24 hrs by acridine orange and ethidium bromide dual fluorescent staining based imaging analysis; assay type: functional
MIA PaCa-2 [16] = experiment: Antitumor activity against human MIA PaCa-2 cells xenografted in athymic BALB/c-nu mouse assessed as fold change in arabinosyl hypoxanthine level in tumor at 10 mg/kg/day, ip administered five times per week for 4 weeks by LC-MS analysis; assay type: functional
MIA PaCa-2 [17] = experiment: Antitumor activity against human MIA PaCa-2 cells xenografted in athymic BALB/c-nu mouse assessed as fold change in biotin level in tumor at 10 mg/kg/day, ip administered five times per week for 4 weeks by LC-MS analysis; assay type: functional
MIA PaCa-2 [18] = experiment: Antitumor activity against human MIA PaCa-2 cells xenografted in athymic BALB/c-nu mouse assessed as fold change in D-glucuronicacid level in tumor at 10 mg/kg/day, ip administered five times per week for 4 weeks by LC-MS analysis; assay type: functional
MIA PaCa-2 [19] = experiment: Antitumor activity against human MIA PaCa-2 cells xenografted in athymic BALB/c-nu mouse assessed as fold change in Gly-Leu metabolite level in tumor at 10 mg/kg/day, ip administered five times per week for 4 weeks by LC-MS analysis; assay type: functional
MIA PaCa-2 [20] = experiment: Antitumor activity against human MIA PaCa-2 cells xenografted in athymic BALB/c-nu mouse assessed as fold change in nicotinamide level in tumor at 10 mg/kg/day, ip administered five times per week for 4 weeks by LC-MS analysis; assay type: functional
MIA PaCa-2 [21] = experiment: Antitumor activity against human MIA PaCa-2 cells xenografted in athymic BALB/c-nu mouse assessed as fold change in 2,6-diaminopimelicacid level in tumor at 2 mg/kg/day, ip administered five times per week for 4 weeks by LC-MS analysis; assay type: functional
MIA PaCa-2 [22] = experiment: Antitumor activity against human MIA PaCa-2 cells xenografted in athymic BALB/c-nu mouse assessed as fold change in 2'-deoxycytidine level in tumor at 2 mg/kg/day, ip administered five times per week for 4 weeks by LC-MS analysis; assay type: functional
MIA PaCa-2 [23] = experiment: Antitumor activity against human MIA PaCa-2 cells xenografted in athymic BALB/c-nu mouse assessed as fold change in 4-(methylthio)-2-oxobutyric acid level in tumor at 2 mg/kg/day, ip administered five times per week for 4 weeks by LC-MS analysis; assay type: functional
MIA PaCa-2 [24] = experiment: Antitumor activity against human MIA PaCa-2 cells xenografted in athymic BALB/c-nu mouse assessed as fold change in 5'-methylthioadenosine level in tumor at 2 mg/kg/day, ip administered five times per week for 4 weeks by LC-MS analysis; assay type: functional
MIA PaCa-2 [25] = experiment: Antitumor activity against human MIA PaCa-2 cells xenografted in athymic BALB/c-nu mouse assessed as fold change in desthiobiotin level in tumor at 2 mg/kg/day, ip administered five times per week for 4 weeks by LC-MS analysis; assay type: functional
MIA PaCa-2 [26] = experiment: Antitumor activity against human MIA PaCa-2 cells xenografted in athymic BALB/c-nu mouse assessed as fold change in glycerol 3-phosphate level in tumor at 2 mg/kg/day, ip administered five times per week for 4 weeks by LC-MS analysis; assay type: functional
MIA PaCa-2 [27] = experiment: Antitumor activity against human MIA PaCa-2 cells xenografted in athymic BALB/c-nu mouse assessed as fold change in Gly-Leu metabolite level in tumor at 2 mg/kg/day, ip administered five times per week for 4 weeks by LC-MS analysis; assay type: functional
MIA PaCa-2 [28] = experiment: Antitumor activity against human MIA PaCa-2 cells xenografted in athymic BALB/c-nu mouse assessed as fold change in glutamic acid level in tumor at 2 mg/kg/day, ip administered five times per week for 4 weeks by LC-MS analysis; assay type: functional

SMILES: COc1cc(O)c(C(=O)[C@@H]2CC=C(CCC=C(C)C)C[C@H]2c2ccccc2)c(O)c1
- Activity (PANC-1 [1]): Active
- inhibition (PANC-1 [2]): Dose-Dependent Effect
- inhibition (PANC-1 [3]): Dose-Dependent Effect
- inhibition (MIA PaCa-2 [4]): Dose-Dependent Effect
- inhibition at 10 µM (MIA PaCa-2 [5]): 88%
- inhibition at 20 µM (PANC-1 [6]): 82%
- Activity (MIA PaCa-2 [7]): 181 mg
- Activity (MIA PaCa-2 [8]): Active
- fold change (FC) (MIA PaCa-2 [9]): 0.5
- fold change (FC) (MIA PaCa-2 [10]): 0.41
- fold change (FC) (MIA PaCa-2 [11]): 0.53
- fold change (FC) (MIA PaCa-2 [12]): 0.35
- fold change (FC) (MIA PaCa-2 [13]): 0.25
- fold change (FC) (MIA PaCa-2 [14]): 0.29
- Activity (PANC-1 [15]): Active
- fold change (FC) (MIA PaCa-2 [16]): 0.21
- fold change (FC) (MIA PaCa-2 [17]): 0.43
- fold change (FC) (MIA PaCa-2 [18]): 0.68
- fold change (FC) (MIA PaCa-2 [19]): 0.4
- fold change (FC) (MIA PaCa-2 [20]): 0.39
- fold change (FC) (MIA PaCa-2 [21]): 0.53
- fold change (FC) (MIA PaCa-2 [22]): 0.63
- fold change (FC) (MIA PaCa-2 [23]): 0.48
- fold change (FC) (MIA PaCa-2 [24]): 0.33
- fold change (FC) (MIA PaCa-2 [25]): 0.63
- fold change (FC) (MIA PaCa-2 [26]): 0.4
- fold change (FC) (MIA PaCa-2 [27]): 0.45
- fold change (FC) (MIA PaCa-2 [28]): 0.41
